# Measured values reported in article PMC6413952, “Discovery of ABBV-4083, a novel analog of Tylosin A that has potent anti-Wolbachia and anti-filarial activity” (PLoS Neglected Tropical Diseases, 2019).
# Like-named read-outs stand apart in the source and are kept apart here.
# Legend:
# [1] = Cardiovascular effects in dogs; format: in vivo; settings: administered to dogs
# Description: (§1) As a preclinical candidate, ABBV-4083 has been evaluated in a variety of in vitro assays assessing preclinical safety. […] In preparation for first-in-human studies, the safety of ABBV-4083 has been extensively evaluated in 28-day GLP general and reproductive toxicity studies. In addition, the synthesis has been adapted to produce GMP quality supplies.
# [2] = In vitro phospholipidosis assay; format: cell-based
# Description: as §1
# [3] = In vitro high-content steatosis screen; format: cell-based
# Description: as §1
# hERG channel = hERG channel (Homo sapiens, UniProt Q12809); test: Functional hERG channel activity; format: biochemical; settings: maximum concentration of 30 μM
# Description: as §1
# [4] = test system: Litomosoides sigmodontis / Wolbachia; test: Litomosoides sigmodontis microfilariae-positive jird model; format: in vivo, jirds (Meriones unguiculatus)
# Method: As described previously, female BALB/c mice or female jirds were infected at 6–8 weeks of age with L. sigmodontis larvae through the bites of Ornithonyssus bacoti mites.
# Starting at 14 weeks post infection, microfilariae-positive jirds (n = 7 per group) were dosed PO with ABBV-4083 (150 mg/kg QD) dissolved in 0.5% HPMC/0.02% Tween-80 or vehicle using a volume of 5ml/kg. Microfilariae numbers were assessed through visual inspection of blood samples collected from the saphenous vein at weekly intervals post-dosing. For this, 10 μl of peripheral blood were diluted in 300 μl of Hinkelmann solution (0.5% Eosin Y, 0.5% Phenol, 0.185% Formaldehyde in aqua dest). After 5 minutes of centrifugation at 400g, the supernatant was discarded and the pellet transferred for microscopic quantification of the microfilariae. At 16 weeks post-treatment, jirds were euthanized by an overdose of isoflurane; worms were recovered from the pleural cavity and counted. Remaining intact female adult worms were used to assess embryogenesis and the Wolbachia load. For the latter, genomic DNA (gDNA) was extracted from individual female adult worms and quantification of the Wolbachia ftsZ (wLs-ftsZ) and L. sigmodontis β-actin (Ls-act) gene copy numbers was performed by quantitative real-time PCR (qPCR).
# For embryograms, remaining intact female adult worms were individually homogenized in 20% Hinkelmann/80% PBS solution, diluted 1:10 in PBS and quantified by microscopy. Embryonal stages were differentiated as egg, morulae, pretzel and stretched microfilariae.
# [5] = test system: 77 mammalian receptors, ion channels, enzymes and transporters; set-up: method as in PMID 30867321; settings: cited from earlier work
# [6] = test system: Litomosoides, Brugia and Onchocerca; set-up: method as in PMID 30867321; settings: cited from earlier work; for anti-Wolbachia efficacy compared with doxycycline: shorter durations of treatment
# [7] = test system: gram(+) and gram(-) microorganisms; set-up: method as in PMID 30867321; settings: majority of panel; cited from earlier work
# [8] = In vitro genotoxicity screening assays; format: cell-based
# Description: as §1
# [9] = Rat oral pharmacokinetic study (plasma AUC, C8hr); format: in vivo, Sprague-Dawley rats; settings: for AUC*/EC50: potency-weighted AUC
# Method: PO doses were administrated by oral gavage, IP doses by intraperitoneal injection to BALB/c mice or Sprague-Dawley rats (Charles River Laboratories, USA). Serial blood samples collected into EDTA anticoagulant for plasma concentration analysis were obtained from each animal after dosing. EDTA preserved plasma samples were extracted by protein precipitation with acetonitrile fortified with internal standards. The supernatant was injected into an HPLC-MS/MS system for separation and quantitation. Detection was accomplished using a triple quadrupole mass spectrometer operated either in electrospray or atmospheric chemical ionization (APCI) mode. The area under the plasma concentration-time curve (AUC) was calculated using the linear trapezoidal rule.
# receptors = test: Battery of 35 assays assessing general selectivity; format: binding; settings: maximum concentration of 10 μM
# Description: as §1
# [10] = test system: Wolbachia pipientis in Aedes albopictus C6/36 (wAlbB) insect cells; test: A·WOL Wolbachia-infected Aedes albopictus (C6/36 wAlbB) 7-day cell-based assay, high content imaging
# Description: Compounds were screened for anti-Wolbachia activity in vitro in the A·WOL-validated Wolbachia-infected Aedes albopictus (C6/36 wAlbB) 7-day cell-based assay which utilizes a 384-well format assay with high content imaging (HCI) (Operetta) as described previously.
# We began our work by selecting a diverse and representative sample of the AbbVie antibiotics collection (129 compounds) for single-point testing against Wolbachia pipientis in an insect cell line. […] While TylA has a long history of use in multiple animal species, it has never been studied in humans; and its activity against Wolbachia has not previously been reported.
# Sequence of hERG channel (Q12809 whole entry): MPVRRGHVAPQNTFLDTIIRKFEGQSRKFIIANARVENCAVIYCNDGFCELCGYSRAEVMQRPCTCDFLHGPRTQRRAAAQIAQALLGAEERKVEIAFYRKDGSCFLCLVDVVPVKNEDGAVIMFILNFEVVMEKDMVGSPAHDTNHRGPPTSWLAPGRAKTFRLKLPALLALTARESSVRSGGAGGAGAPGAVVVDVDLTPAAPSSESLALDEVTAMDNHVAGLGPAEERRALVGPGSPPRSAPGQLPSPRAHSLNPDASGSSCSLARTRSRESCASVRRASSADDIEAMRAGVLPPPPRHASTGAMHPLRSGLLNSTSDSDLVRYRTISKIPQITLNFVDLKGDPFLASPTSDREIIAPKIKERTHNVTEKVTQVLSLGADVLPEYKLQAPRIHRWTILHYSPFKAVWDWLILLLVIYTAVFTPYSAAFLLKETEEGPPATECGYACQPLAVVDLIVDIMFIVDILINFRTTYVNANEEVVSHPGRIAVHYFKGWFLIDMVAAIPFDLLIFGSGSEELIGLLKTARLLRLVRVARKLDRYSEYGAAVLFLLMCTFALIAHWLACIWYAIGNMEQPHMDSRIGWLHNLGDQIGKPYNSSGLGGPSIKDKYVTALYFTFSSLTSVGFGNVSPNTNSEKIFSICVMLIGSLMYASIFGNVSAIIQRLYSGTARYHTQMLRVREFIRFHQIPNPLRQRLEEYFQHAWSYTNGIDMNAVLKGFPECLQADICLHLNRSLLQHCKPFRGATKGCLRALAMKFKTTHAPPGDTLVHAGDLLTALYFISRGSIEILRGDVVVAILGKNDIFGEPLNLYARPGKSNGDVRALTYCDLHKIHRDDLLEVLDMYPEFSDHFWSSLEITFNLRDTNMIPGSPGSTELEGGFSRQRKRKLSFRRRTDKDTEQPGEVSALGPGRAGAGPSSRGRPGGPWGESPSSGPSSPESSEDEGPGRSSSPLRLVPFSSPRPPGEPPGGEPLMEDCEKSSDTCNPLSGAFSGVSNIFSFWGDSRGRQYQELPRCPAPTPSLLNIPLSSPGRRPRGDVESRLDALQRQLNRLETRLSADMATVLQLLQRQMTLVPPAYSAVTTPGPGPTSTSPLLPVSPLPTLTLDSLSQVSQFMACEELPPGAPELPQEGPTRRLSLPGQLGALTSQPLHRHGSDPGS
smiles,measurement,setting,value
CC[C@H]1OC(=O)C[C@@H](O)[C@H](C)[C@@H](O[C@@H]2O[C@H](C)[C@@H](O[C@H]3C[C@@](C)(O)[C@@H](OCc4ccc(F)cc4)[C@H](C)O3)[C@H](N(C)C)[C@H]2O)[C@@H](CC=O)C[C@@H](C)C(=O)/C=C/C(C)=C/[C@@H]1CO[C@@H]1O[C@H](C)[C@@H](O)[C@@H](OC)[C@H]1OC [Compound 5d],cardiovascular effects,[1],did not produce significant cardiovascular effects
same,phospholipidosis,[2],No potential to induce phospholipidosis
same,steatosis,[3],did not induce steatosis
same,inhibition of functional hERG channel activity,hERG channel,did not inhibit
same,Wolbachia depletion,"[4]; 150mg/kg 14days QD, Fig 3A","-99,91%"
same,embryogenesis (embryograms of female worms),"[4]; 150 mg/kg PO QD 14 days, 16 weeks post treatment start",near-complete loss of all embryonic forms including eggs
same,circulating microfilariae,"[4]; 150 mg/kg PO QD 14 days, from 12 weeks pti until 16 weeks pti",completely cleared
same,reduction of Wolbachia levels in recovered female adult worms,"[4]; 150 mg/kg PO once daily for 14 days, 16 weeks post-treatment-initiation",> 99.9%
same,interactions across 77 assays,[5],significant interaction was only observed in two assays
same,direct microfilaricidal activity,[6],not directly microfilaricidal
same,anti-Wolbachia efficacy compared with doxycycline,[6],superior to doxycycline
same,anti-Wolbachia efficacy compared with doxycycline,[6]; listed as ABBV-4083,equals or exceeds the efficacy of doxycycline
same,change in susceptibility compared with TylA,[7],little to no change in susceptibility
same,genotoxicity,[8],neither mutagenic nor clastogenic
same,C*8hr,"[9]; PO rats, C(8hr)/dose",0.75 ng/mL per mg/kg
same,AUC* parent,"[9]; PO, Sprague-Dawley rats, AUC* = AUC/dose",16 ng-hr/ml per mg/kg
same,AUC* TylA (metabolite),"[9]; PO, Sprague-Dawley rats, primary metabolite TylA, AUC/dose",<0.6 ng-hr/ml per mg/kg
same,potency-weighted 8-hr drug level (C8hr/dose/EC50) relative to TylA,[9]; oral dosing,"2,000 fold"
same,potency-weighted AUC (AUC*/EC50) relative to TylA,[9]; oral dosing,"2,500 fold"
same,improvement in plasma drug levels (AUC) over TylA,"[9]; oral dosing, rats",1.7 fold
same,metabolic stability of substituent / species observed in plasma,[9]; oral pharmacokinetic study,only parent drug is observed in the plasma
same,C*8hr/ EC50,"[9]; potency-weighted 8-hr drug level, PO rats",39.5 ng/ml/nM per mg/kg
same,AUC*/EC50,[9]; PO rats,842 ng-hr/ml/nM per mg/kg
same,AUC*/EC50,[9]; rat,"842,000 ng-hr/ml/uM per mg/kg"
same,interactions with receptors in 35 selectivity assays,receptors,no significant interactions with any receptors
same,EC50,"[10]; C6/36, Wolbachia-infected insect cells, geometric mean (N), each N a duplicate measurement",0.019 nM
same,potency improvement (EC50) over TylA,[10]; EC50 lower than parent TylA,"1,500 fold"
